Like-named read-outs stand apart in the source and are kept apart here.

Assay [1] relates to mouse (MC3T3-E1) and human (TE-85) osteoblast-line cells. It is filed as cell-based. The method, boiled down: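 MC3T3-E1 or TE-85 cells were plated overnight in DMEM/25 mM HEPES/10% FBS and then preincubated 24 h in 0.1% FBS. Compounds were added for 20 h, followed by a 4 h pulse of 0.4 μCi ^3H-thymidine. Incorporated radioactivity served as the proliferation index, expressed as % of control (control = 100%).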

Assay [2] has as its target T1, progestin receptor from rabbit uterus (Oryctolagus cuniculus, UniProt P06186).
T1 construct: Cytosolic progestin receptor were obtained by mixing rabbit uterine tissue with a Tris buffer; from tissue; host or cells: rabbit uterus cytosol
The experiment in a line: Progestin receptor binding (3H-R5020 displacement). To be noted: rabbit uterine cytosol, 4° C., 18 h, read-out: IC50: Binding affinity for the progestin receptor from rabbit uterus. The method, boiled down:
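Rabbit uterine cytosol in Tris buffer pH 7.4 with EDTA, DTT and molybdate was incubated with 3H-R5020 and test compound (5% DMSO final) at 4 °C for about 18 h. Bound ligand was separated with dextran-coated charcoal and counted by scintillation; IC50 is 50% radioligand displacement, with nonspecific binding defined by excess unlabelled ligand.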

T1 sequence (P06186 whole entry): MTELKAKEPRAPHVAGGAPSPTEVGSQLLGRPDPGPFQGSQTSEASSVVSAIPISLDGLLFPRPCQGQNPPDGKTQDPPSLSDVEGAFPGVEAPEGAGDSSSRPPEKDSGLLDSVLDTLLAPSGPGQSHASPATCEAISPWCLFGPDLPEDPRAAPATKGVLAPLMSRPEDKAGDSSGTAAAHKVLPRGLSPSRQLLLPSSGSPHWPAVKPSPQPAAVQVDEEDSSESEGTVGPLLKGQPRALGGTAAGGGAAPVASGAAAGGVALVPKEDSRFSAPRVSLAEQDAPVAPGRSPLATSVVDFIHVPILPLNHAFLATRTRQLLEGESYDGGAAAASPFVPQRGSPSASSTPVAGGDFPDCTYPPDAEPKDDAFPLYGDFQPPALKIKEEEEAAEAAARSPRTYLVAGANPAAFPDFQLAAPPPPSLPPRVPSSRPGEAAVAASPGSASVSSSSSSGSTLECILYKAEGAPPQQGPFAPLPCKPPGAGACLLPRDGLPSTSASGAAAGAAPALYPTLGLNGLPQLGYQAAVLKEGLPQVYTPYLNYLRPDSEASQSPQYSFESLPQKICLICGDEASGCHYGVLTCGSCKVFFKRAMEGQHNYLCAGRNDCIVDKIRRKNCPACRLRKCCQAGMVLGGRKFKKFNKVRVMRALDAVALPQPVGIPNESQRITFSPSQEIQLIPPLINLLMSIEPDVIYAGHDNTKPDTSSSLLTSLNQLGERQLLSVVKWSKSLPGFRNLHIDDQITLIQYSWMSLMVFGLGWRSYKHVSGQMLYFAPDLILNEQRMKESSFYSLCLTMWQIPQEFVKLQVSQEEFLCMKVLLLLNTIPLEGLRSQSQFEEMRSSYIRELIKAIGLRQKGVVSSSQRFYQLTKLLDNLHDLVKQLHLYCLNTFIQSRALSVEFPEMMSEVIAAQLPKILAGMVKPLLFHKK

For `O=[N+]([O-])c1cccc(S(=O)(=O)N2CCCC(c3ccc(Cl)cc3)=N2)c1` [Compound 14], the “Osteoblast Cell Proliferation, 3H-thymidine incorporation vs control (100%)” value (“Osteoblast Cell Proliferation … (100%)” for short) in assay [1] (10^-6) worked out at 96%; in assay [1] (10^-7), 109%; in assay [1] (10^-8), 118%; in assay [1] (10^-9), 136%; in assay [1] (10^-10), 139%. For the same molecule, in assay [2], the IC50 – broadly, the concentration needed to halve the response being measured – was found to be 7 nM.

On to `O=S(=O)(c1ccc2ccccc2c1)N1CCCC(c2ccc(F)cc2)=N1` [Compound 25], for which the “Osteoblast Cell Proliferation … (100%)” value in assay [1] (10^-6) turned out to be 87%; in assay [1] (10^-7) it was 106%; in assay [1] (10^-8) it was 101%; in assay [1] (10^-9), 99%; in assay [1] (10^-10), 90%. Also, in assay [2], the IC50 was 49 nM.

In the case of `O=S(=O)(c1ccc(F)cc1F)N1CCCC(c2ccc(Cl)cc2)=N1` [Compound 32], the “Osteoblast Cell Proliferation … (100%)” value was found to be 89% in assay [1] (10^-6); 103% in assay [1] (10^-7); 105% in assay [1] (10^-8); 111% in assay [1] (10^-9); 118% in assay [1] (10^-10). In addition, the half-maximal inhibitory concentration (IC50) in assay [2] turned out to be 45 nM.

On to `O=S(=O)(c1cc(C(F)(F)F)cc(C(F)(F)F)c1)N1CCCC(c2ccc(Cl)cc2)=N1` [Compound 33], for which the “Osteoblast Cell Proliferation … (100%)” value in assay [1] (10^-6) amounted to 96%; in assay [1] (10^-7), 107%; in assay [1] (10^-8), 117%; in assay [1] (10^-9), 127%; in assay [1] (10^-10) it was 152%. Further, the IC50 in assay [2] turned out to be 9 nM.

On to `O=[N+]([O-])c1ccc(S(=O)(=O)N2CCCC(c3ccc(Cl)c(Cl)c3)=N2)cc1` [Compound 38], for which the “Osteoblast Cell Proliferation … (100%)” value in assay [1] (10^-6) was found to be 76%; in assay [1] (10^-7) it was 73%; in assay [1] (10^-8), 54%; in assay [1] (10^-9), 49%; in assay [1] (10^-10), 37%. For the same molecule, in assay [2], the IC50 was 5.29 nM.

Turning to `O=S(=O)(c1ccccc1)N1CCCC(c2ccc(Cl)c(Cl)c2)=N1` [Compound 43], the “Osteoblast Cell Proliferation … (100%)” value was found to be 92% in assay [1] (10^-6); 92% in assay [1] (10^-7); 99% in assay [1] (10^-8); 98% in assay [1] (10^-9); 85% in assay [1] (10^-10). In addition, the IC50 in assay [2] is 3.3 nM.

With `COC(=O)c1ccccc1S(=O)(=O)N1CCCC(c2ccc(Cl)c(Cl)c2)=N1` [Compound 47], the “Osteoblast Cell Proliferation … (100%)” value came out at 109% in assay [1] (10^-6); 112% in assay [1] (10^-7); 113% in assay [1] (10^-8); 115% in assay [1] (10^-9); 123% in assay [1] (10^-10). The IC50 in assay [2] is 20.1 nM.

For the molecule `O=S(=O)(c1ccc2ccccc2c1)N1CCCC(c2ccccc2)=N1` [Compound 51], the “Osteoblast Cell Proliferation … (100%)” value in assay [1] (10^-6) was 119%; in assay [1] (10^-7), 120%; in assay [1] (10^-8) it was 144%; in assay [1] (10^-9) it was 126%; in assay [1] (10^-10), 158%. The concentration for half-maximal inhibition (IC50) in assay [2] came out at 203 nM.

As to `COc1ccc(C2=NN(S(=O)(=O)c3ccc(Cl)cc3)CCC2)cc1` [Compound 63], the “Osteoblast Cell Proliferation … (100%)” value in assay [1] (10^-6) was determined as 101%; in assay [1] (10^-7) it was 103%; in assay [1] (10^-8), 99%; in assay [1] (10^-9), 77%; in assay [1] (10^-10), 97%. Also, the 50% inhibitory concentration (IC50) in assay [2] was determined as 118 nM.

`COc1ccc(C2=NN(S(=O)(=O)c3ccccc3)CCC2)cc1` [Compound 64]: the “Osteoblast Cell Proliferation … (100%)” value in assay [1] (10^-6) came to 116%; in assay [1] (10^-7), 115%; in assay [1] (10^-8) it was 121%; in assay [1] (10^-9), 128%; in assay [1] (10^-10) it was 137%. For the same molecule, the IC50 in assay [2] came out at 550 nM.

For the molecule `COc1ccc(C2=NN(S(=O)(=O)c3ccc4ccccc4c3)CCC2)cc1` [Compound 65], the “Osteoblast Cell Proliferation … (100%)” value in assay [1] (10^-6) amounted to 90%; in assay [1] (10^-7) it was 98%; in assay [1] (10^-8), 94%; in assay [1] (10^-9), 88%; in assay [1] (10^-10) it was 80%. The IC50 in assay [2] was 57 nM.

For the molecule `CCCCc1ccc(C2=NN(S(=O)(=O)c3ccc(I)cc3)CCC2)cc1` [Compound 71], the “Osteoblast Cell Proliferation … (100%)” value came to 110% in assay [1] (10^-6); 114% in assay [1] (10^-7); 99% in assay [1] (10^-8); 103% in assay [1] (10^-9); 98% in assay [1] (10^-10). Moreover, in assay [2], the half-maximal inhibitory concentration (IC50) is 10000 nM.

For the molecule `CCCCc1ccc(C2=NN(S(=O)(=O)c3ccc4ccccc4c3)CCC2)cc1` [Compound 72], the “Osteoblast Cell Proliferation … (100%)” value in assay [1] (10^-6) came out at 113%; in assay [1] (10^-7), 119%; in assay [1] (10^-8), 129%; in assay [1] (10^-9), 120%; in assay [1] (10^-10) it was 123%. Further, the IC50 in assay [2] stood at 10000 nM.

With `O=S(=O)(c1ccc(Cl)c(Cl)c1)N1CCCC(c2ccc(Cl)c(C(F)(F)F)c2)=N1` [Compound 81], the “Osteoblast Cell Proliferation … (100%)” value in assay [1] (10^-7) worked out at 110%; in assay [1] (10^-8), 119%; in assay [1] (10^-9), 119%; in assay [1] (10^-10), 128%. In addition, in assay [2], the IC50 turned out to be 16.5 nM.

For `O=S(=O)(c1ccc(Cl)cc1)N1CCCC(c2ccc(-c3ccccc3)cc2)=N1` [Compound 84], the “Osteoblast Cell Proliferation … (100%)” value is recorded as 108% in assay [1] (10^-6); 119% in assay [1] (10^-7); 130% in assay [1] (10^-8); 127% in assay [1] (10^-9); 122% in assay [1] (10^-10). Also, the IC50 in assay [2] is 1000 nM.

(Values after patent US5684151A, “1-arylsulphonyl, arylcarbonyl and 1-arylphosphonyl-3-phenyl-1,4,5,6-tetrahydropyridazines” (priority 1995, dated 1997).)
